Reference: patent US20240307819A1, “ELECTROCHEMICAL TARGET SPECIES CAPTURE WITH A REDOX-ACTIVE AMINE” (Massachusetts Institute of Technology, priority 2021, published 2024)
Blank lines part the entries; values can stand above or below the molecule they belong to.

What was measured:
[1] = Cyclic voltammetry of the redox-active amines; settings: for Ep^red vs Ag/AgCl / Potential gap / Ep^oxi vs Ag/AgCl: Table 1; for Ep^red vs Ag/AgCl / Ep^oxi vs Ag/AgCl: techniques of Example 1; for Potential gap: gap between Ep^oxi and Ep^red
Protocol: Potentials were recorded versus Ag/AgCl as a reference electrode.
Cyclic voltammetry (CV) was conducted to probe the mechanism of this process as depicted in FIG. 4E.
Each of structures 1-20 were assessed for electrochemical capture and release of carbon dioxide in accordance with the techniques described above in Example 1. Absorption capacities for carbon dioxide are reported in units of moles of CO2 per mole of amine. […] For the release experiments, 3.5 mL solutions of amine and captured carbon dioxide at concentrations ranging from 0.1-0.2 M of amine were electrochemically oxidized at a constant current of 50 mA while released CO2 was measured as a function of charge passed.

[2] = Electrochemical release of CO2 by constant-current oxidation in an H-cell (electron utilization); design: key to stable electron utilization: moles CO2 released per mole of electrons transferred; settings: for εCO2 (electron utilization during CO2 release): moles of CO2 released per moles of electrons, 0.1-0.2 M amine, constant current 50 mA
Protocol: FIGS. 5A-5F are related to electrochemical release of CO2. FIG. 5A is a schematic of the experimental setup for CO2 release. […] The amount of released CO2 (curve A) and electron utilization (curve B) are shown versus electric charge.
A bench-scale setup using an electrochemical H-cell was constructed and tested for the capture and release of CO2 (FIG. 5A). The system was equipped with an anion exchange membrane separating two 5 mL reaction chambers, carbon felt as a working electrode, and a stainless steel wire electrode for an arbitrary reaction in the counter chamber. […] Then, pure CO2 was bubbled into the solution for 10 min to complete the saturation of the electrochemically generated 1-Apyl radical dimer 3 solution. […] The electron utilization (εCO2) during CO2 release on oxidation represents the ratio between the moles of CO2 released and the moles of electrons transferred (equation 1): […]

[3] = Direct capture of CO2 from ambient air, then electrochemical oxidation; settings: 0.2 M, 3.5 mL, bubbled with air 18 h at ca. 100 mL/min
Protocol: (§1) FIGS. 8A-8C are related to direct air capture and stability test of 1-APyl radical 2 solution. […] 0.1, 0.2, and 0.4 M 1-APyl radical 2 aqueous solutions (1 mL) were bubbled with air at a flow rate of 3.3 mL/min at room temperature. […] The 1-APyl radical 2 solutions (0.2 M, 5 mL) were bubbled with dioxygen for 1 and 30 days (curve shading matching the shading of the labels in the figure) at a flow rate of 10 mL/min followed by contact with pure CO2 for an additional 12 min. The 1-APyl radical 2 solutions were sealed under nitrogen for 1 and 30 days followed by contact with pure CO2 for 12 min for the control experiments.
We next sought to expand the use of the 1-AP nitrate redox cycle to the direct capture of CO2 from ambient air (FIGS. 8A-8C). The 1-APyl radical dimer 3 solution (3.5 mL) was prepared by first reducing a 0.2 M 1-AP nitrate (1) solution, and then bubbling the solution with non-pretreated air for 18 h at a flow rate of ca. 100 mL/min (FIG. 8A). Electrochemical oxidation of the air-bubbled solution was carried out to evaluate the direct air capture efficiency. The system presented electron utilization during CO2 release of up to 0.78 with 36% cell capacity usage with the 0.2 M solution. […] Initial CO2 absorption rates from the ambient air were measured in 0.1, 0.2, and 0.4 M solutions of 1-APyl radical 2 (FIG. 8B). […]

[4] = Cyclic stability of electrochemical CO2 capture and release over 5 cycles
Protocol: FIGS. 7A-7D are related to cyclic stability of the electrochemical CO2 capture and release by 1-AP nitrate (1) redox system for 5 cycles.
The reversible capture and release of CO2 was tested over five cycles to evaluate the robustness of the 1-AP nitrate redox cycle (FIG. 7A-7D). The cyclic stability was evaluated with a 0.8 mmol amine solution and restricted to operate at 80% of the full capacity of the cell in order to minimize undesired side reactions. The gas output and CO2 fraction were monitored to show reproducible and stable capture and release of CO2 during five cycles under the applied current conditions. The gas release rate was steady at 0.75 mL/min, consistent with the release of one mole of CO2 per mole electrons transferred under steady current flow in each cycle.

Aqueous solubility = format: physicochemical; settings: Table 1, aqueous solution
[5] = CO2 absorption by electrochemically reduced amine solutions; settings: for CO2 capacity (absorption capacity): 1 mL aqueous 0.1-0.2 M amine, reduced, 15% CO2 inlet gas
Protocol: FIGS. 6A-6D are related to CO2 absorption dynamics in 1-APyl radical 2 solutions. […] 0.2 M 1-APyl radical 2 solution in 1 mL of water was contacted with the gas at a flow rate of 3.3 mL/min at room temperature. […] 1 mL of 0.04 M 1-APyl radical 2 solution was contacted with the gas at a flow rate of 3.3 mL/min at room temperature. […] A flow of 15% CO2 concentration balanced by nitrogen was used.
The changes in flow rate and concentration of CO2 were monitored by a CO2 flow meter and an FT-IR CO2 sensor, respectively.

[6] = Stability test of 1-APyl radical solution (oxygen sensitivity and nitrogen controls); format: physicochemical; settings: 0.2 M, 5 mL
Protocol: as §1
To test the stability of the 1-APyl radical in air, a set of experiments was carried out (FIG. 8C). Exposure to pure dioxygen (10 mL/min) of the 1-APyl radical 2 solution (0.2 M, 5 mL) for 1 and 30 days (see corresponding curve in FIG. 8C) followed by saturation with pure CO2 provided 6.6% and 46% decrease, respectively, of the capacity of the system compared to the output for the freshly CO2-saturated solution (see corresponding curve in FIG. 8C). […] Although further studies for the stability under the various conditions are warranted, operation in the presence of oxygen remains feasible.

[7] = in water; cited from earlier work
[8] = 20 mM in water, 0.1 M potassium nitrate, nitrogen, platinum working electrode, 20 mV/s, room temperature

Molecule: COC(=O)c1cc[n+](N)cc1.F[B-](F)(F)F [Entry 1]
- Ep^red vs Ag/AgCl [1]: −0.34 V

Molecule: N[n+]1ccccc1 [1-AP nitrate, 1-aminopyridinium]
- stable electron utilization ([2]; 1 M 1-AP nitrate solution, 3.5 mL, 100 mA): 1.25
- capacity of the electrochemical CO2 release process ([2]; per g of 1-AP nitrate): 12.4 mmol/g
- electron utilization ([2]; solution prepared from 0.2 M 1-AP nitrate, 3.5 mL, 50 mA): up to 1.08
- cell capacity usage, direct air capture [3]: 36%
- electron utilization during CO2 release, direct air capture ([3]; 50 mA): up to 0.78
- oxidative peak potential [1, 8]: −0.32 V vs. Ag/AgCl
- reductive peak potential [1, 8]: −0.45 V vs. Ag/AgCl
- gas release rate ([4]; 0.2 M, 0.8 mmol in 4 mL water, 50 mA, 80% of full capacity, each of 5 cycles): 0.75 mL/min
- robustness over cycles ([4]; 5 cycles): no significant loss in performance

Molecule: COc1cc[n+](N)cc1.[O-][Cl+3]([O-])([O-])[O-] [Entry 4]
- Low solubility (Observations) (Aqueous solubility): (<0.2M)
- εCO2 (electron utilization during CO2 release) ([2]; 3.5 mL): 0.70
- Potential gap [1]: 1.75 V
- Ep^oxi vs Ag/AgCl [1]: 1.05 V
- Ep^red vs Ag/AgCl [1]: −0.70 V

Molecule: Nc1cc[n+](N)cc1 [Entry 5]
- CO2 capacity (absorption capacity) ([5]; 3.3 mL/min): 2.3 moles of CO2 per mole of amine
- εCO2 (electron utilization during CO2 release) ([2]; 3.5 mL): 0.99
- Potential gap [1]: 1.44 V
- Ep^oxi vs Ag/AgCl [1]: 1.02 V
- Ep^red vs Ag/AgCl [1]: −0.48 V

Molecule: 1-aminopyridinyl (1-APyl) radical [1-APyl radical 2]
- decrease of the capacity of the system ([6]; bubbled with nitrogen 10 mL/min, 30 days): 54%
- decrease of the capacity of the system ([6]; pure dioxygen 10 mL/min, 1 day, vs freshly CO2-saturated solution): 6.6%
- decrease of the capacity of the system ([6]; pure dioxygen 10 mL/min, 30 days): 46%
- decrease of the capacity of the system ([6]; sealed under nitrogen, 1 day): 7.2%
- decrease of the capacity of the system ([6]; sealed under nitrogen, 30 days): 22%
- CO2 absorption rate compared with EDA and MEA ([5]; 0.2 M in 1 mL water, 15% CO2 balanced by nitrogen): comparable
- constant CO2 capacity ([5]; 1, 4, 15 and 100% CO2 inlet gas streams, 3.3 mL/min, room temperature): 1.94 mole of CO2 per mole of amine
- stability in water (from quasi-reversible CV wave) ([1]; water, room temperature): stable in water at room temperature

Molecule: NC(=O)c1cc[n+](N)cc1.O=[N+]([O-])[O-] [Entry 7]
- CO2 capacity (absorption capacity) ([5]; 3.3 mL/min): 1.1 moles of CO2 per mole of amine
- εCO2 (electron utilization during CO2 release) ([2]; 3.5 mL): 0.69
- Potential gap [1]: 1.37 V
- Ep^oxi vs Ag/AgCl [1]: 0.88 V
- Ep^red vs Ag/AgCl [1]: −0.49 V

Molecule: O=C(O)O [carbonic acid]
- pKa [7]: approximately 6.8

Molecule: CN(C)c1cc[n+](N)cc1 [Entry 6]
- CO2 capacity (absorption capacity) ([5]; 3.3 mL/min): 2.0 moles of CO2 per mole of amine
- εCO2 (electron utilization during CO2 release) ([2]; 3.5 mL): 0.99
- Potential gap [1]: 1.28 V
- Ep^oxi vs Ag/AgCl [1]: 0.85 V
- Ep^red vs Ag/AgCl [1]: −0.43 V

Molecule: CC(C)(C)c1cc[n+](N)cc1.[O-][Cl+3]([O-])([O-])[O-] [Entry 3]
- Low solubility (Observations) (Aqueous solubility): (<0.2M)
- εCO2 (electron utilization during CO2 release) ([2]; 3.5 mL): 0.52
- Potential gap [1]: 1.31 V
- Ep^oxi vs Ag/AgCl [1]: 0.83 V
- Ep^red vs Ag/AgCl [1]: −0.48 V

Now from value to molecule, other results behind:

- Potential gap [1]: 1.30 V
- Ep^oxi vs Ag/AgCl [1]: 0.84 V
- Ep^red vs Ag/AgCl [1]: −0.44 V
Molecule: COc1ccc[n+](N)c1.[O-][Cl+3]([O-])([O-])[O-] [Entry 14]
- εCO2 (electron utilization during CO2 release) ([2]; 3.5 mL): 0.41

- Potential gap [1]: 1.43 V
- Ep^oxi vs Ag/AgCl [1]: 0.88 V
- Ep^red vs Ag/AgCl [1]: −0.55 V
Molecule: N#Cc1cc[n+](N)cc1.O=[N+]([O-])[O-] [Entry 8]
- CO2 capacity (absorption capacity) ([5]; 3.3 mL/min): 1.65 moles of CO2 per mole of amine
- εCO2 (electron utilization during CO2 release) ([2]; 3.5 mL): 0.70

- solubility (Aqueous solubility; read-out: Low solubility (Observations)): < 10 mM
Molecule: N[n+]1c2ccccc2nc2ccccc21 [Entry 20, amino-phenazinium]

- Potential gap [1]: 1.47 V
- Ep^oxi vs Ag/AgCl [1]: 1.00 V
- Ep^red vs Ag/AgCl [1]: −0.47 V
Molecule: Cc1ccc[n+](N)c1.[O-][Cl+3]([O-])([O-])[O-] [Entry 13]
- εCO2 (electron utilization during CO2 release) ([2]; 3.5 mL): 0.83

- Potential gap [1]: 1.96 V
- Ep^oxi vs Ag/AgCl [1]: 1.52 V
- Ep^red vs Ag/AgCl [1]: −0.44 V
Molecule: Cc1cc(C)c[n+](N)c1.[O-][Cl+3]([O-])([O-])[O-] [Entry 18]

- Potential gap [1]: 2.46 V
- Ep^oxi vs Ag/AgCl [1]: 1.73 V
- Ep^red vs Ag/AgCl [1]: −0.73 V
Molecule: COc1cccc[n+]1N.O=[N+]([O-])[O-] [Entry 16]
- CO2 capacity (absorption capacity) ([5]; 3.3 mL/min): 1.05 moles of CO2 per mole of amine
- εCO2 (electron utilization during CO2 release) ([2]; 3.5 mL): 0.76

- Potential gap [1]: 1.47 V
- Ep^oxi vs Ag/AgCl [1]: 1.04 V
- Ep^red vs Ag/AgCl [1]: −0.43 V
Molecule: Cc1cccc(C)[n+]1N.[O-][Cl+3]([O-])([O-])[O-] [Entry 17]

- Potential gap [1]: 1.41 V
- Ep^oxi vs Ag/AgCl [1]: 0.85 V
- Ep^red vs Ag/AgCl [1]: −0.56 V
Molecule: N[n+]1ccc(O)cc1 [Entry 9]
- CO2 capacity (absorption capacity) ([5]; 3.3 mL/min): 0.95 moles of CO2 per mole of amine
- εCO2 (electron utilization during CO2 release) ([2]; 3.5 mL): 0.32

- Potential gap [1]: 1.73 V
- Ep^oxi vs Ag/AgCl [1]: 1.03 V
- Ep^red vs Ag/AgCl [1]: −0.70 V
Molecule: Nc1ccc[n+](N)c1 [Entry 15]
- CO2 capacity (absorption capacity) ([5]; 3.3 mL/min): 1.1 moles of CO2 per mole of amine
- εCO2 (electron utilization during CO2 release) ([2]; 3.5 mL): 0.72

- Potential gap [1]: 1.34 V
- Ep^oxi vs Ag/AgCl [1]: 0.87 V
- Ep^red vs Ag/AgCl [1]: −0.47 V
Molecule: CNc1cc[n+](N)cc1.O=[N+]([O-])[O-] [Entry 12]
- CO2 capacity (absorption capacity) ([5]; 3.3 mL/min): 1.6 moles of CO2 per mole of amine
- εCO2 (electron utilization during CO2 release) ([2]; 3.5 mL): 0.91
